Test results: paper PMC8745223, “Novel 1,3,5-Triazinyl Aminobenzenesulfonamides Incorporating Aminoalcohol, Aminochalcone and Aminostilbene Structural Motifs as Potent Anti-VRE Agents, and Carbonic Anhydrases I, II, VII, IX, and XII Inhibitors” (International Journal of Molecular Sciences, 2021)
≈ marks a conversion by molar mass, not a printed value.

Columns and labels:
[1] = target: T1, hCA II (Homo sapiens, UniProt P00918); assay: stopped-flow CO2 hydration assay; type: biochemical
T1 construct: gene CA2; recombinant
Outline: (§1)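 Recombinant human carbonic anhydrase CO2 hydration was followed by stopped-flow for 10–100 s with 0.2 mM phenol red (557 nm), 20 mM Hepes pH 7.5, 20 mM Na2SO4 and 1.7–17 mM CO2. Enzyme and inhibitor (diluted to 0.005 nM in buffer) were preincubated 15 min at room temperature. Initial rates used at least six traces, with uncatalysed rates subtracted. Ki was fitted by non-linear least squares with Cheng–Prusoff equation, averaged over three or more determinations.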

[2] = target: T2, hCA I (Homo sapiens, UniProt P00915); assay: stopped-flow CO2 hydration assay; type: biochemical
T2 construct: gene CA1; recombinant
T2 sequence (P00915 2-261): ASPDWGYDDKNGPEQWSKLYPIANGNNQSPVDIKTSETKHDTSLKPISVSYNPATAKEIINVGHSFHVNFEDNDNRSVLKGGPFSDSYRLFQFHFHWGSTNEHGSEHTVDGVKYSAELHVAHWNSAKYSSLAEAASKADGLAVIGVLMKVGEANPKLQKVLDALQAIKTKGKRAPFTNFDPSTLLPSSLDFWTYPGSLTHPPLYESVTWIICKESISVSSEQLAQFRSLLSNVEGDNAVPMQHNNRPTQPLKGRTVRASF
Outline: as §1

[3] = target: T3, hCA VII (Homo sapiens, UniProt P43166); assay: stopped-flow CO2 hydration assay; type: biochemical
T3 construct: gene CA7; recombinant
T3 sequence (P43166 whole entry): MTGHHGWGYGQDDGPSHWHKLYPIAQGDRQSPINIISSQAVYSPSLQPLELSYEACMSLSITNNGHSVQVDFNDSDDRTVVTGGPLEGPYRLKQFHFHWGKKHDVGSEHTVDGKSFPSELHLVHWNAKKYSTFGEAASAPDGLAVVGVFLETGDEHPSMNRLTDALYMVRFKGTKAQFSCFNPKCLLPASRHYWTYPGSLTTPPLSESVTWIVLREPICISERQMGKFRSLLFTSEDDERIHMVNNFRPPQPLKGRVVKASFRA
Outline: as §1

[4] = stopped-flow CO2 hydration assay; type: biochemical, Homo sapiens; settings: read-out: KI (nM) ^a / hCA I
Outline: as §1

[5] = system: T4, E. faecalis ATCC 29212 (EF); assay: microbe, parasite or virus in culture; parameters: broth microdilution MIC in BHI, Alamar Blue read-out, 37 °C; settings: Enterococcus faecalis, ATCC29212, 24 h
T4 construct: ATCC 29212
Method: (§2) The inhibition activity against enterococci was evaluated by the microtitration broth method according to the Clinical and Laboratory Standards Institute with some modifications. The compounds were dissolved in DMSO and serially diluted in Brain Hearth Infusion (BHI) to reach concentrations 256–2 µg/mL. […] The experiment was repeated at least three times. All the investigated compounds were tested on their anti-staphylococcal activity against three clinical isolates of methicillin-resistant Staphylococcus aureus (MRSA) and S. aureus ATCC 29213 as the reference and quality control strain.

[6] = system: T5, Enterococcus faecalis VRE 342 B; assay: organism not typed; parameters: broth microdilution MIC in BHI, Alamar Blue read-out, 37 °C; settings: 24 h
T5 construct: VRE 342 B (vanA clinical isolate)
Method: as §2

[7] = system: T6, Enterococcus faecalis VRE 368; assay: organism not typed; parameters: broth microdilution MIC in BHI, Alamar Blue read-out, 37 °C; settings: 24 h
T6 construct: VRE 368 (vanA clinical isolate)
Method: as §2

[8] = system: T7, Enterococcus faecalis VRE 725 B; assay: organism not typed; parameters: broth microdilution MIC in BHI, Alamar Blue read-out, 37 °C; settings: 24 h
T7 construct: VRE 725B (vanA clinical isolate)
Method: as §2, with “strain. […] All the compounds were tested against Enterococcus faecalis ATCC 29212 as the reference strain and three isolates from American crows of vanA-carrying vancomycin-resistant E. faecalis (VRE), and the activities, expressed as minimum inhibitory concentrations (MICs), are listed in Table 3.” for “strain.”

[9] = system: T5, Enterococcus faecalis VRE 342 B; assay: organism not typed; parameters: broth microdilution MIC in BHI, Alamar Blue read-out, 37 °C; settings: 24 h; remark: listed apart in the source
Method: as §2, with “strain. […] All the compounds were tested against Enterococcus faecalis ATCC 29212 as the reference strain and three isolates from American crows of vanA-carrying vancomycin-resistant E. faecalis (VRE), and the activities, expressed as minimum inhibitory concentrations (MICs), are listed in Table 3.” for “strain.”

[10] = system: T6, Enterococcus faecalis VRE 368; assay: organism not typed; parameters: broth microdilution MIC in BHI, Alamar Blue read-out, 37 °C; settings: 24 h; remark: listed apart in the source
Method: as §2, with “strain. […] All the compounds were tested against Enterococcus faecalis ATCC 29212 as the reference strain and three isolates from American crows of vanA-carrying vancomycin-resistant E. faecalis (VRE), and the activities, expressed as minimum inhibitory concentrations (MICs), are listed in Table 3.” for “strain.”

[11] = system: T4, E. faecalis ATCC 29212 (EF); assay: microbe, parasite or virus in culture; parameters: broth microdilution MIC in BHI, Alamar Blue read-out, 37 °C; settings: Enterococcus faecalis, ATCC29212, 24 h; remark: listed apart in the source
Method: as §2, with “strain. […] All the compounds were tested against Enterococcus faecalis ATCC 29212 as the reference strain and three isolates from American crows of vanA-carrying vancomycin-resistant E. faecalis (VRE), and the activities, expressed as minimum inhibitory concentrations (MICs), are listed in Table 3.” for “strain.”

[12] = target: T2, hCA I; assay: biochemical; parameters: stopped-flow CO2 hydration assay, phenol red indicator at 557 nm, 15 min preincubation with inhibitor
Method: (§3) AnSX.18MV-R Applied Photophysics stopped-flow instrument (Applied Photophysics, Leatherhead, UK) has been used for assaying the CA catalyzed CO2 hydration activity. Phenol red (at a concentration of 0.2 mM) has been used as an indicator, working at the absorbance maximum of 557 nm, with 20 mM Hepes (pH 7.5) as a buffer and 20 mM Na2SO4 (for maintaining constant the ionic strength), following the CA-catalyzed CO2 hydration reaction for a period of 10–100 s. The CO2 concentrations ranged from 1.7 to 17 mM for the determination of the kinetic parameters and inhibition constants. For each inhibitor, at least six traces of the initial 5–10% of the reaction were used for determining the initial velocity. The uncatalyzed rates were determined in the same manner and were subtracted from the total observed rates. Stock solutions of the inhibitor (0.1 mM) were prepared in distilled-deionized water, and dilutions up to 0.005 nM were done thereafter with the assay buffer. Inhibitor and enzyme solutions were preincubated together for 15 min at room temperature prior to assay in order to allow for the formation of the E–I complex. The inhibition constants were obtained by non-linear least-squares methods using PRISM 3 and the ChengPrusoff equation, as reported earlier, and represent the mean from at least three different determinations. All CA isoforms were recombinant ones and were prepared as reported earlier. Errors in the range of 5–10% of the reported value (Mean from three different assays, by stopped-flow technique). The presence of aminobenzenesulfonamide structural moiety in the structure of target compounds 1–44 can cause inhibition activity in these compounds against human carbonic anhydrases. The inhibition of physiologically relevant hCA I and hCA II can lead to various undesirable side effects. On the other hand, the inhibition of tumor-associated isoenzymes hCA IX and hCA XII could be a great benefit in tumor treatment. Inhibition of isoenzyme hCA VII, which is presented mostly in the brain, can be a new approach for the treatment of epilepsy or chronic neuropathic pain [42, 43]. Compounds 1–44 were evaluated as potential inhibitors of hCA I, hCA II, hCA VII, hCA IX, and hCA XII. The inhibition activities against individual hCAs were determined by methodology based on stopped-flow assay. For completeness, Table 2 also includes the previously published inhibition activities of compounds 2, 3, 5–12 and 18–19. Values of KIs were compared with clinically used sulfonamides as standards—AAZ (acetazolamide), BRZ (brinzolamide), DCP (dichlorphenamide), DZA (dorzolamide), EZA (ethoxzolamide), MZA (methazolamide), and IND (indisulam; canceled in clinical trials).

[13] = target: T1, hCA II; assay: biochemical; parameters: stopped-flow CO2 hydration assay, phenol red indicator at 557 nm, 15 min preincubation with inhibitor
Method: as §3

[14] = target: T8, hCA IX (Homo sapiens, UniProt Q16790); assay: biochemical; parameters: stopped-flow CO2 hydration assay, phenol red indicator at 557 nm, 15 min preincubation with inhibitor
T8 construct: gene CA9; recombinant
Method: as §3

[15] = target: T3, hCA VII; assay: biochemical; parameters: stopped-flow CO2 hydration assay, phenol red indicator at 557 nm, 15 min preincubation with inhibitor
Method: as §3

Row | Structure (SMILES) | Ki [1] | Ki [2] | Ki [3] | Ki [4] | MIC [5] | MIC [6] | MIC [7] | MIC [8] | MIC [9] | MIC [10] | MIC [11] | Ki [12] | Ki [13] | Ki [14] | Ki [15]
1 | NS(=O)(=O)c1ccc(CNc2nc(NCCCO)nc(Nc3ccc(C(=O)/C=C/c4cccc(O)c4)cc3)n2)cc1 [compound 15, 15] | 3020 nM | > 10000 nM | 25.9 nM | > 10000 nM | 222 µM (≈ 128 µg/mL) | 222 µM (≈ 128 µg/mL) | 111 µM (≈ 63.9 µg/mL) | 111 µM (≈ 63.9 µg/mL) |  |  |  |  |  |  | 
2 | NS(=O)(=O)c1ccc(CCNc2nc(Nc3ccc(O)cc3)nc(Nc3ccc(C(=O)/C=C/c4ccccc4)cc3)n2)cc1 [compound 21, (E)-4-[2-({4-[(4-Cinnamoylphenyl)amino]-6-[(4-hydroxyphenyl)amino]-1,3,5-triazin-2-yl}amino)ethyl]benzenesulfonamide] | 3160 nM | > 10000 nM | 810 nM | > 10000 nM | 26.3 µM (≈ 16 µg/mL) | 26.3 µM (≈ 16 µg/mL) | 26.3 µM (≈ 16 µg/mL) | 26.3 µM (≈ 16 µg/mL) |  |  |  |  |  |  | 
3 | NS(=O)(=O)c1ccc(CCNc2nc(NCC(O)CO)nc(Nc3ccc(C(=O)/C=C/c4ccccc4O)cc3)n2)cc1 (centres unmarked) [compound 23, 23] | 83 nM | > 10000 nM | 88.7 nM | > 10000 nM | 52.8 µM (≈ 32 µg/mL) | 52.8 µM (≈ 32 µg/mL) | 52.8 µM (≈ 32 µg/mL) | 105 µM (≈ 63.6 µg/mL) |  |  |  |  |  |  | 
4 | NS(=O)(=O)c1ccc(CNc2nc(NCC(O)CO)nc(Nc3ccc(C(=O)/C=C/c4ccc(O)cc4)cc3)n2)cc1 (centres unmarked) [compound 28, 28] |  |  |  |  |  |  |  | > 444 µM | > 444 µM | > 444 µM | > 444 µM | 8220 nM | 184 nM | 8460 nM | 594 nM
